Here are results for 3 molecules from patent US20240262835A1, “PRMT5 INHIBITING COMPOUNDS AND USES THEREOF” (ANTENGENE DISCOVERY LIMITED, priority 2023, published 2024).

Like-named read-outs stand apart in the source and are kept apart here.

As a reminder, the CLint scaled is the rate of metabolic loss divided by the concentration. Broadly, the half-life is the time in which the quantity being followed falls by half. Broadly, the microsomal CLint is a measure of how fast metabolising enzymes remove a compound, apart from limits set by blood flow.

The subject of series [1] is cryopreserved hepatocytes. The settings on record: dog.
Description: 1) 10 mM test compounds were provided.
(§1) 2) 30 mM positive control stock solutions: Dissolved accurate amount of positive control compounds in dimethyl sulfoxide (DMSO).
(§2) 3) 1000× Stock Solution: Diluted 10 mM test compounds and 30 mM positive control compounds to 1 mM and 3 mM with DMSO in 96-well plates.
(§3) 4) 100× Dosing Solution: Diluted 1 mM test compounds and 3 mM positive control compounds to 100 μM and 300 μM dosing solutions with ACN.
(§4) 5) Preparation of 0.5×10^6/mL cells suspension: cryopreserved cells were thawed, isolated and suspended in Incubation Medium, then diluted with pre-warmed Incubation Medium to 0.5×10^6 cells/mL.
(§5) 6) Add 198 μL of pre-warmed cell suspensions in 96-well plates.
(§6) 7) Preparation of Quenching Plate: Transfer 125 μL of stop solution in a set of pre-labeled 96-well plates.
(§7) 8) Spike 2 μL dosing solution to each well of 96-well plates in duplicate.
(§8) 9) For TO Samples, mix to achieve a homogenous suspension for about 1 min, then immediately transfer 25 μL of each sample into well containing 125 μL of ice-cold stop solution followed by mixing.
(§9) 10) Incubate all plates at 37° C. in a 95% humidified incubator at 5% CO2 to start the reactions with constant shaking.
(§10) 11) At 15, 30, 60 and 90 min, mix samples and then transfer 25 μL of each sample at each time point to well containing 125 μL of ice-cold stop solution followed by mixing.
(§11) 12) Medium Control (MC) sample plates (labeled as TO-MC and T90-MC) are prepared in the same way as cell incubation except that medium was used instead of cell suspension.
(§12) 13) At each corresponding time point, stop the reactions by removing the plates from incubator and mixing with 125 μL of ice-cold stop solution.
(§13) 14) Vortex the plates immediately on a plate shaker at 600 rpm for 10 minutes. Then, centrifuge all sample plates at 3220×g for 20 min at 4° C.
(§14) 15) After centrifugation, 80 μL/well of supernatant in the sample plates are transferred to another set of pre-labeled 96-well plates which containing 240 μL of ultra pure water according to the plate map.
(§15) 16) Analytical plates are sealed and store at 4° C. until LC-MS/MS analysis.
(§16) The remaining percents of test articles after incubation were calculated by the follow equations:
(§17) Use the following equation of first order kinetics to calculate T1/2 and CLint:
Series [2] deals with cryopreserved hepatocytes. The settings on record: rat.
Description: 1) 10 mM test compounds were provided.
as §1, §2, §3, §4, §5, §6, §7, §8, §9, §10, §11, §12, §13, §14, §15, §16, §17
The nature of series [3]: in vitro. The settings on record: mouse, hepatocytes.
Description: 1) 10 mM test compounds were provided.
as §1, §2, §3, §4, §5, §6, §7, §8, §9, §10, §11, §12, §13, §14, §15, §16, §17
In series [4] the test system is cryopreserved hepatocytes. To be noted: cynomolgus monkey.
Description: 1) 10 mM test compounds were provided.
as §1, §2, §3, §4, §5, §6, §7, §8, §9, §10, §11, §12, §13, §14, §15, §16, §17
Series [5] is described as follows: in vitro. To be noted: cynomolgus monkey, hepatocytes.
Description: 1) 10 mM test compounds were provided.
as §1, §2, §3, §4, §5, §6, §7, §8, §9, §10, §11, §12, §13, §14, §15, §16, §17
Series [6] in a line: in vitro. To be noted: rat, hepatocytes.
Description: 1) 10 mM test compounds were provided.
as §1, §2, §3, §4, §5, §6, §7, §8, §9, §10, §11, §12, §13, §14, §15, §16, §17
Series [7] is described as follows: in vitro. The settings on record: dog, hepatocytes.
Description: 1) 10 mM test compounds were provided.
as §1, §2, §3, §4, §5, §6, §7, §8, §9, §10, §11, §12, §13, §14, §15, §16, §17
The nature of series [8]: in vitro. To be noted: human, hepatocytes.
Description: 1) 10 mM test compounds were provided.
as §1, §2, §3, §4, §5, §6, §7, §8, §9, §10, §11, §12, §13, §14, §15, §16, §17
For series [9], the system named is cryopreserved hepatocytes. The settings on record: mouse.
Description: 1) 10 mM test compounds were provided.
as §1, §2, §3, §4, §5, §6, §7, §8, §9, §10, §11, §12, §13, §14, §15, §16, §17
Series [10] has as its system cryopreserved hepatocytes. To be noted: human.
Description: 1) 10 mM test compounds were provided.
as §1, §2, §3, §4, §5, §6, §7, §8, §9, §10, §11, §12, §13, §14, §15, §16, §17
Series [11] relates to cryopreserved hepatocytes. Kind of series: Hepatic metabolic stability (HMS) assay, human hepatocytes. To be noted: human, hepatocytes.
Description: 1) 10 mM test compounds were provided.
as §1, §2, §3, §4, §5, §6, §7, §8, §9, §10, §11, §12, §13, §14, §15, §16, §17
Assay in series [12]: as above
The settings on record: human, cryopreserved hepatocytes.
Description: 1) 10 mM test compounds were provided.
as §1, §2, §3, §4, §5, §6, §7, §8, §9, §10, §11, §12, §13, §14, §15, §16, §17

Series [13] deals with cryopreserved hepatocytes. Put plainly: Hepatic metabolic stability (HMS) assay, dog hepatocytes. To be noted: dog, hepatocytes.
Description: 1) 10 mM test compounds were provided.
as §1, §2, §3, §4, §5, §6, §7, §8, §9, §10, §11, §12, §13, §14, §15, §16, §17
Assay in series [14]: as above
The settings on record: dog, cryopreserved hepatocytes.
Description: 1) 10 mM test compounds were provided.
as §1, §2, §3, §4, §5, §6, §7, §8, §9, §10, §11, §12, §13, §14, §15, §16, §17

In series [15] the test system is cryopreserved hepatocytes. Kind of series: Hepatic metabolic stability (HMS) assay, cynomolgus monkey hepatocytes. The settings on record: cynomolgus monkey, hepatocytes.
Description: 1) 10 mM test compounds were provided.
as §1, §2, §3, §4, §5, §6, §7, §8, §9, §10, §11, §12, §13, §14, §15, §16, §17
Assay in series [16]: as above
The settings on record: cynomolgus monkey, cryopreserved hepatocytes.
Description: 1) 10 mM test compounds were provided.
as §1, §2, §3, §4, §5, §6, §7, §8, §9, §10, §11, §12, §13, §14, §15, §16, §17

For series [17], the system named is cryopreserved hepatocytes. Put plainly: Hepatic metabolic stability (HMS) assay, mouse hepatocytes. The settings on record: mouse, hepatocytes.
Description: 1) 10 mM test compounds were provided.
as §1, §2, §3, §4, §5, §6, §7, §8, §9, §10, §11, §12, §13, §14, §15, §16, §17
Assay in series [18]: as above
The settings on record: mouse, cryopreserved hepatocytes.
Description: 1) 10 mM test compounds were provided.
as §1, §2, §3, §4, §5, §6, §7, §8, §9, §10, §11, §12, §13, §14, §15, §16, §17

Series [19] has as its system cryopreserved hepatocytes. Put plainly: Hepatic metabolic stability (HMS) assay, rat hepatocytes. The settings on record: rat, hepatocytes.
Description: 1) 10 mM test compounds were provided.
as §1, §2, §3, §4, §5, §6, §7, §8, §9, §10, §11, §12, §13, §14, §15, §16, §17
Assay in series [20]: as above
The settings on record: rat, cryopreserved hepatocytes.
Description: 1) 10 mM test compounds were provided.
as §1, §2, §3, §4, §5, §6, §7, §8, §9, §10, §11, §12, §13, §14, §15, §16, §17

Series [21] can be described thus: Liver microsome metabolic stability (LMS) assay, cynomolgus monkey. Background: Liver microsomes are a subcellular fraction often used to study metabolism.
Series [22] is described as follows: in vitro. The settings on record: rat, microsomes.
A short description of series [23]: Liver microsome metabolic stability (LMS) assay, human.
Series [24] can be described thus: Liver microsome metabolic stability (LMS) assay, dog. The settings on record: dog, microsomes.
The conditions of series [25]: rat liver microsome, scaled to liver.

For `CCOc1ccc2ccc(=O)oc2c1` [Ref. 1, 7-Ethoxycoumarin], the “CLint (hep) D” value in [1] was 521.1 μL/min/10^6. In addition, the “CLint (hep) R” value in series [2] is recorded as 39.2 μL/min/10^6. Moreover, the CLint scaled at 3 μM was 7700 mL/min/kg in series [3]; 554 mL/min/kg in [5]; 184 mL/min/kg in series [6]; 3580 mL/min/kg in [7]; 201 mL/min/kg in [8]. Moreover, the half-life at 3 μM in [3] was determined as 2.1 min; in series [5], 9 min; in series [6], 35.3 min; in series [8], 19.2 min. Also, the “CLint (hep) C” value in series [4] came to 154.0 μL/min/10^6. In [9], the “CLint (hep) M” value is 647.9 μL/min/10^6. Moreover, in series [10], the “CLint (hep) H” value was determined as 72.1 μL/min/10^6.

With `O=c1ccc2ccc(O)cc2o1` [Ref. 2, 7-Hydroxycoumarin, reference compound], the “CLint (hep) H” value in series [11] is 367.6 μL/min/10^6. For the same molecule, the intrinsic clearance (CLint scaled) at 3 μM is 1020 mL/min/kg in series [12]; 3270 mL/min/kg in series [14]; 2360 mL/min/kg in series [16]; 7220 mL/min/kg in [18]; 3170 mL/min/kg in series [20]. Further, the half-life at 3 μM is 3 min in [12]; 2.9 min in [14]; 2.1 min in series [16]; 2.3 min in series [18]; 2 min in series [20]. In [13], the “CLint (hep) D” value is on record as 475.1 μL/min/10^6. Moreover, the “CLint (hep) C” value in series [15] is 655.8 μL/min/10^6. The “CLint (hep) M” value in [17] is given as 608.1 μL/min/10^6. The “CLint (hep) R” value in [19] came to 678.0 μL/min/10^6.

Turning to `C[C@]12CC[C@H]3[C@@H](CCC4=CC(=O)CC[C@@]43C)[C@@H]1CC[C@@H]2O` [Ref. 4, Testosterone, reference compound], in [21] (cynomolgus monkey liver microsome), the “CLint (mic) C” value was found to be 152.3 µL/min/mg. In series [21] (cynomolgus monkey, microsomes), this molecule gave an intrinsic metabolic clearance (CLint scaled) at 1 μM of 206 mL/min/kg and a half-life at 1 μM of 9.1 min. Moreover, the half-life in series [22] was determined as 0.7 min. Further, the “CLint (mic) H” value in [23] (human liver microsome) was 79.0 µL/min/mg. The same molecule gave a half-life at 1 μM in series [23] (human, microsomes) of 17.6 min. Further, in [24], the intrinsic clearance (CLint scaled) at 1 μM was determined as 58.7 mL/min/kg, the half-life at 1 μM was 34 min and the microsomal CLint at 1 μM turned out to be 40.8 µL/min/mg. Moreover, in [25], the “CLint (liver) R” value is 3782.4 mL/min/kg.
